The text below walks through data of patent publication US5670520A, “Method for inhibiting virus replication in mammalian cells using carbostyil derivatives” (Otsuka Pharmaceutical Co., Ltd., priority 1996, dated 1997).

The test system of one data set is human T cells. In words: 30 min [3H]thymidine, [3H]uridine and [3H]amino acid incorporation. As to conditions: 30 min label, 250 μM vesnarinone. Type of data set: cell-based. As to the method:
Next, the PHA-stimulated T cells were labelled for 30 min with 5.0 μCi/ml of an [^3 H]amino acid mixture (1.0 mCi/ml, Amersham, Arlington Heights, Ill.), washed twice with ice-cold PBS, and then lysed in PBS containing 1.0% (w/v) SDS, followed by addition of a mixture of 7.0% (w/v) trichloroacetic acid and 1.0% (w/v) pyrophosphate. The precipitates were loaded on GF/A filters, and washed extensively with a mixture of 7.0% (w/v) trichloroacetic acid and 1.0% (w/v) pyrophosphate. Radioactivity was measured by scintillation counting.

For data set [1], the system named is CHO cells. In words: Rescue of CHO cells from cytostatic effects of 5-FUd. The class given is cell-based, Chinese hamster. The settings on record: 50 nM 5-FUd, 120 hrs; 0-250 μM vesnarinone or 1.0-10 μM dipyridamole. An excerpt: Nucleoside transport inhibitors, such as dipyridamole or NBMPR, are known to rescue cell proliferation from the cytotoxic effects of 5-fluorouridine(5-FUd) or high dose thymidine, by inhibiting transport of this cytotoxic nucleoside analog or thymidine (Aronow et al, Mol. Cell Biol., 6:2957-2962 (1986)).

A further data set relates to EBV. In words: Productive replication of EBV in growing Akata cells (in situ hybridization). As to conditions: for positivity for EBV DNA: 20 μg/ml vesnarinone. Type of data set: cell-based, Epstein-Barr virus. As to the method:
1 hr later, anti-IgG was added to the cultures at a final concentration of 50 μg/ml, and the cells were harvested for in situ hybridization of EBV DNA 24 hrs later as described above.

Another data set has as its system EBNA2, LMP1, bcl-2. In words: Western blot of EBNA2, LMP1 and bcl-2 in Burkitt's lymphoma cell lines. The class given is cell-based, human. The settings on record: 20 μg/ml vesnarinone 7 days. An excerpt:
The cell lines included Akata (type A, group I), Raji (type A, group III), P3HR1 (type B, group I) (ATCC No. HTB-62), and Jijoye (type B, group III) (ATCC No. CCL-87). The molecules examined were a latent nuclear protein, EBNA2, a latent membrane protein, LMP1, and an anti-apoptotic host component, bcl-2. […] These differences between the two phenotypes have been related to the sensitivity to induce apoptosis, and the ability to induce the productive phase of EBV infection (Henderson et al, Cell, 65:1107-1115 (1991); and Gregory et al, Nature, 349:612-614 (1991)).
For detection of EBNA2, LMP1, and bcl-2, the mouse monoclonal anti-EBNA2 (PE2, Accurate, Westbury, N.Y.) (Young et al, N. Engl. J. Med., 321:1080-1085 (1989)), the mouse monoclonal anti-LMP1 (S12, provided by Dr. David A. Thorley-Lawson) (Mann et al, J. Virol., 55:710-720 (1985)), and the monoclonal anti-bcl-2 (bcl-2/124, Accurate) (Pezzella et al, Am. J. Pathol., 137:225-232 (1990)), respectively, were used. The ECL chemiluminescence method was used for the detection of these proteins.
Background: Immunoblotting shows a protein as a band on a membrane.

The subject of data set [2] is Akata, P3HR1, Jijoye, Raji. In words: Cell growth of Burkitt's lymphoma cell lines, 7 days. As to conditions: Homo sapiens, Burkitts lymphoma cell, 168 h; read-out: cell growth (cell numbers) relative to control cultures. The class given is cell-based.
For a further data set, the system named is MRC5 cells. In words: MTT cell viability of MRC5 cells. The class given is cell-based. The protocol:
More specifically, 5.0 μg/ml of MTT in Eagles MEM supplemented with 2.0% (v/v) fetal bovine serum was added to each well, and incubated at 37° C. for 6 hr. The cells were then solubilized by adding 30% (w/v) SDS in 0.02N HCl. The cultures were incubated overnight at 37° C. Then, the optical density was measured at 570 nm on a spectrophotometer.

The test system of data set [3] is U937 cells. In words: Intracellular AZT-MP, AZT-DP, AZT-TP in U937 cells by HPLC. The settings on record: vesnarinone 75 μM (30 μg/ml); [3H]AZT 2 hr. As to the method:
1.0 ml fractions were collected, and the radioactivity was measured by liquid scintillation. The retention time for AZT and AZT-MP was confirmed using cold AZT and AZT-MP (Sigma) under the same conditions.
Intracellular concentrations of [^3 H]AZT-MP, [^3 H]AZT-DP, and [^3 H]AZT-TP were measured using HPLC as described above.

The conditions of data set [4]: some patients; cited from earlier work.
The subject of data set [5] is CHO cells. In words: Rapid uptake of [3H]thymidine / [3H]AZT in CHO cells. The settings on record: 0-250 μM vesnarinone, 1 min.
Procedure: (§1) Then, 1.0 μCi/ml of [^3 H]thymidine (6.7 Ci/mmol) or 1.0 μCi/ml of [^3 H]AZT (14 Ci/mmol) was added, and the mixture was immediately layered on silicone oil/paraffin oil (96:6) in microfuge tubes. […] The water and oil phases were discarded, and radioactivity of the cell pellets was measured using liquid scintillation counting.
Data set [6] relates to U937 cells. In words: Intracellular phosphorylated AZT in U937 cells (DEAE filter). As to conditions: 0-250 μM vesnarinone or 0-100 nM dipyridamole; 2 hr.
In data set [7] the test system is primary human T lymphocytes. In words: Rapid uptake of [3H]thymidine / [3H]AZT in PHA-activated human T cells. The settings on record: 0-250 μM vesnarinone, 1 min.
Procedure: Human PBMC were obtained by leukopheresis of HIV-1 and HBV Zeronegative healthy donors. Mononuclear cell suspensions were prepared therefrom by Ficoll-Hypaque gradient centrifugation, and the T cells were obtained therefrom by E-rosette enrichment as described by Terada et al, J. Immunol., 147:698-704 (1991).
as §1

As to `COc1ccc(C(=O)N2CCN(c3ccc4c(c3)CCC(=O)N4)CC2)cc1OC` [vesnarinone, 3,4-dihydro-6-[4-(3,4-dimethoxybenzoyl)-1-piperazinyl]-2(1H)-quinoline], the “[3H]amino acid incorporation” value in the data set with human T cells is “did not inhibit [^3 H]amino acid incorporation”. Also, in the data set on human T cells (15 nM aphidicolin or 100 μM deferoxamine), the “[3H]uridine incorporation, brief exposure” value was “rapidly inhibited [^3 H]uridine incorporation”. The “reversal of cytostatic effects of 5-FUd (cell number)” value with CHO cells [1] is on record as “demonstrated a similar ability to rescue the cells in a dose-dependent manner”. In the data set on EBV (20 μg/ml vesnarinone only concurrently with anti-IgG treatment), the EBV production entry is given as “displayed a more profound reduction of EBV production”. For the same compound, the entries for the “positivity for EBV DNA” value in the data set on EBV (pre-treatment alone (7 days)) and in the data set on EBV (pre-treatment+post-treatment or solely post-treatment) were “the degree of positivity for EBV DNA was higher” and “reduced the level of positivity for EBV DNA compared to untreated cells”, respectively. In addition, the “expression of EBNA2, LMP1, bcl-2” value is listed as “did not induce these molecules in the group I lines” in the data set on EBNA2, LMP1, bcl-2 (group I lines (Akata, P3HR1)) and “nor did the vesnarinone alter levels of expression of these molecules in the group III lines” in the data set on EBNA2, LMP1, bcl-2 (group III lines (Raji, Jijoye)). Also, the activity at 20 µg/mL in data set [2] lay within 80 to 90%. The “MTT Cell Viability (% of control)” value is recorded as 100 % of control in the data set on MRC5 cells (vesnarinone 3.88 μg/ml alone), 98 % of control with MRC5 cells (vesnarinone 7.75 μg/ml alone), 98 % of control with MRC5 cells (vesnarinone 15.5 μg/ml alone) and 90 % of control in the data set on MRC5 cells (vesnarinone 31 μg/ml alone). Also, the “cytotoxicity by MTT” value in the data set with MRC5 cells (vesnarinone 3.88-31 μg/ml, alone or with DHPG 0.625-5.000 μM) was “little or no cytotoxicity was observed”. Moreover, in the data set with U937 cells [3], the “increase of intracellular AZT-DP” value was 45%. Moreover, the “increase of intracellular AZT-MP” value in the data set on U937 cells [3] was 100%. The “major side effect in patients” value in [4] was “agranulocytosis, a major side effect of vesnarinone observed in some patients”. Moreover, the “uptake of [3H]AZT” value (in the data set on CHO cells [5]; in [7]) was “the uptake of [^3 H]AZT was not affected by vesnarinone” each time. In addition, the “uptake of [3H]thymidine” value (in the data set with CHO cells [5]; in data set [7]) was “inhibits the uptake of [^3 H]thymidine in a dose-dependent manner” throughout. In addition, the “intracellular concentration of phosphorylated AZT” value with U937 cells [6] is reported as “increased the concentration of phosphorylated AZT in U937 cells in a dose-dependent manner”.
